Experiments:
Assay type in all cases: in vivo
[1] = test system: Green Soldier Stink Bug (Nezara viridula); test: Green soldier stink bug, sprayed soybean pods in Petri dishes; settings: 120 h, 300 ppm, late 3rd instar on soybean pods, after 5 days, in comparison with untreated controls, read-out: mortality
Procedure: B.11 Green Soldier Stink Bug (Nezara viridula)
The active compound was dissolved at the desired concentration in a mixture of 1:1 (vol:vol) distilled water:acetone. Surfactant (Kinetic HV) was added at a rate of 0.01% (vol/vol). The test solution was prepared at the day of use.
Soybean pods were placed in glass Petri dishes lined with moist filter paper and inoculated with ten late 3rd instar N. viridula. Using a hand atomizer, approximately 2 ml solution is sprayed into each Petri dish. Assay arenas were kept at about 25° C. Percent mortality was recorded after 5 days.

[2] = test system: Boll Weevil (Anthonomus grandis); test: Boll weevil, insect diet microtiter plate test; settings: 120 h, 2500 ppm, eggs on sprayed insect diet, egg and larval mortality after 5 days, in comparison with untreated controls, read-out: mortality
Procedure: B.5 Boll Weevil (Anthonomus grandis)
For evaluating control of boll weevil (Anthonomus grandis) the test unit consisted of 96-well-microtiter plates containing an insect diet and 5-10 A. grandis eggs.
(§1) The compounds were formulated using a solution containing 75% v/v water and 25% v/v DMSO. Different concentrations of formulated compounds were sprayed onto the insect diet at 5 μl, using a custom built micro atomizer, at two replications.
After application, microtiter plates were incubated at about 25±1° C. and about 75±5% relative humidity for 5 days. Egg and larval mortality was then visually assessed.

[3] = test system: Mediterranean Fruitfly (Ceratitis capitata); test: Mediterranean fruitfly, insect diet microtiter plate test; settings: 120 h, 2500 ppm, eggs on sprayed insect diet, egg and larval mortality after 5 days, in comparison with untreated controls, read-out: mortality
Procedure: B.6 Mediterranean Fruitfly (Ceratitis capitata)
as §1, with “For evaluating control of Mediterranean fruitfly (CeratitiS capitata) the test unit consisted of microtiter plates containing an insect diet and 50-80 C. capitata eggs. The” for “The”
(§2) After application, microtiter plates were incubated at about 28±1° C. and about 80±5% relative humidity for 5 days. Egg and larval mortality was then visually assessed.

[4] = test system: Vetch Aphid (Megoura viciae); test: Vetch aphid, broad bean leaf disk test; settings: foliar, 120 h, 2500 ppm, adult aphids on sprayed broad bean leaf disks, 5 days, in comparison with untreated controls, read-out: mortality
Procedure: B.3 Vetch Aphid (Megoura viciae)
For evaluating control of vetch aphid (Megoura viciae) through contact or systemic means the test unit consisted of 24-well-microtiter plates containing broad bean leaf disks.
The compounds were formulated using a solution containing 75% v/v water and 25% v/v DMSO. Different concentrations of formulated compounds were sprayed onto the leaf disks at 2.5 μl, using a custom built micro atomizer, at two replications.
After application, the leaf disks were air-dried and 5-8 adult aphids placed on the leaf disks inside the microtiter plate wells. The aphids were then allowed to suck on the treated leaf disks and incubated at about 23±1° C. and about 50±5% relative humidity for 5 days. Aphid mortality and fecundity was then visually assessed.

[5] = test system: Neotropical Brown Stink Bug (Euschistus heros); test: Neotropical brown stink bug, sprayed soybean pods in cups; settings: 120 h, 100 ppm, adults on soybean pods, after 5 days, in comparison with untreated controls, read-out: mortality
Procedure: B.12 Neotropical Brown Stink Bug (Euschistus heros)
The active compound was dissolved at the desired concentration in a mixture of 1:1 (vol:vol) distilled water: acetone. Surfactant (Kinetic HV) was added at a rate of 0.01% (vol/vol). The test solution was prepared at the day of use.
Soybean pods were placed in microwavable plastic cups and inoculated with ten adult stage E. heros. Using a hand atomizer, approximately 1 ml solution is sprayed into each cup, insects and food present. A water source was provided (cotton wick with water). Each treatment was replicated 2-fold. Assay arenas were kept at about 25° C. Percent mortality was recorded after 5 days.

[6] = test system: Orchid Thrips (dichromothrips corbetti); test: Orchid thrips, floral-immersion technique; settings: 300 ppm; adult thrips on dipped orchid petals; 72 hours after treatment; in comparison with untreated controls; read-out: mortality
Procedure: B.7 Orchid Thrips (dichromothrips corbetti)
Dichromothrips corbetti adults used for bioassay were obtained from a colony maintained continuously under laboratory conditions. For testing purposes, the test compound is diluted in a 1:1 mixture of acetone:water (vol:vol), plus Kinetic HV at a rate of 0.01% v/v.
Thrips potency of each compound was evaluated by using a floral-immersion technique. All petals of individual, intact orchid flowers were dipped into treatment solution and allowed to dry in Petri dishes. Treated petals were placed into individual re-sealable plastic along with about 20 adult thrips. All test arenas were held under continuous light and a temperature of about 28° C. for duration of the assay. After 3 days, the numbers of live thrips were counted on each petal. The percent mortality was recorded 72 hours after treatment.

[7] = test system: Tobacco Budworm (Heliothis virescens); test: Tobacco budworm, insect diet microtiter plate test; settings: 120 h, 2500 ppm, eggs on sprayed insect diet, egg and larval mortality after 5 days, in comparison with untreated controls, read-out: mortality
Procedure: B.4 Tobacco Budworm (Heliothis virescens)
For evaluating control of tobacco budworm (HeliothiS virescens) the test unit consisted of 96-well-microtiter plates containing an insect diet and 15-25 H. virescens eggs.
The compounds were formulated using a solution containing 75% v/v water and 25% v/v DMSO. Different concentrations of formulated compounds were sprayed onto the insect diet at 10 μl, using a custom built micro atomizer, at two replications.
as §2

[8] = test system: Green Peach Aphid (Myzus persicae); test: Green peach aphid, systemic test on artificial diet in microtiter plates; settings: 72 h, 2500 ppm, adult aphids on treated artificial diet, 3 days, in comparison with untreated controls, read-out: mortality
Source text: B.2 Green Peach Aphid (Myzus persicae)
For evaluating control of green peach aphid (Myzus persicae) through systemic means the test unit consisted of 96-well-microtiter plates containing liquid artificial diet under an artificial mem brane.
The compounds were formulated using a solution containing 75% v/v water and 25% v/v DMSO. Different concentrations of formulated compounds were pipetted into the aphid diet, using a custom built pipetter, at two replications.
After application, 5-8 adult aphids were placed on the artificial membrane inside the microtiter plate wells. The aphids were then allowed to suck on the treated aphid diet and incubated at about 23±1° C. and about 50±5% relative humidity for 3 days. Aphid mortality and fecundity was then visually assessed.

[9] = test system: Diamond Back Moth (Plutella xylostella); test: Diamond back moth, cabbage leaf dip test; settings: foliar, 300 ppm, 3rd instar larvae on dipped cabbage leaves, 72 hours after treatment, in comparison with untreated controls, read-out: mortality
Procedure: B.1 Diamond Back Moth (Plutella xylostella)
The active compound was dissolved at the desired concentration in a mixture of 1:1 (vol:vol) distilled water:aceteone. Surfactant (Kinetic HV) was added at a rate of 0.01% (vol/vol). The test solution was prepared at the day of use.
Leaves of cabbage were dipped in test solution and air-dried. Treated leaves were placed in petri dishes lined with moist filter paper and inoculated with ten 3rd instar larvae. Mortality was recorded 72 hours after treatment.

O=C(NC1CS(=O)(=O)C1)c1ccc(C2=NCC(c3cc(Cl)c(F)c(Cl)c3)(C(F)(F)F)C2)c2c1CCC2 (stereo not drawn) [Compound 2-3, 7-[3-(3,5-Dichloro-4-fluoro-phenyl)-3-(trifluoromethyl)-2,4-dihydropyrrol-5-yl]-N-(1,1-dioxothietan-3-yl)indane-4-carboxamide]
≥ 75%: mortality at 300 ppm [1] | mortality at 2500 ppm [2] | mortality at 2500 ppm [3] | mortality at 2500 ppm [4] | mortality at 100 ppm [5] | mortality at 300 ppm [6] | mortality at 2500 ppm [7] | mortality at 2500 ppm [8] | mortality at 300 ppm [9]
